Test results reported in ChEMBL document CHEMBL3132769, “Fragment growing to retain or alter the selectivity of anchored kinase hinge-binding fragments” (Medchemcomm, 2014).

Tests used:
[1] = target: Tyrosine-protein kinase ABL2 (Homo sapiens) (UniProt P42684); assay: Inhibition of human truncated Arg expressed in baculovirus assessed as substrate phosphorylation using fluorescence-labelled peptides as substrate at 9 uM after 90 mins by microfluidic peptide phosphorylation assay
[2] = target: T1, Serine/threonine-protein kinase D2 (Homo sapiens) (UniProt Q9BZL6); assay: Inhibition of human full length PKD2 expressed in baculovirus assessed as substrate phosphorylation using fluorescence-labelled peptides as substrate at 95 uM after 90 mins by microfluidic peptide phosphorylation assay
T1 sequence (whole entry): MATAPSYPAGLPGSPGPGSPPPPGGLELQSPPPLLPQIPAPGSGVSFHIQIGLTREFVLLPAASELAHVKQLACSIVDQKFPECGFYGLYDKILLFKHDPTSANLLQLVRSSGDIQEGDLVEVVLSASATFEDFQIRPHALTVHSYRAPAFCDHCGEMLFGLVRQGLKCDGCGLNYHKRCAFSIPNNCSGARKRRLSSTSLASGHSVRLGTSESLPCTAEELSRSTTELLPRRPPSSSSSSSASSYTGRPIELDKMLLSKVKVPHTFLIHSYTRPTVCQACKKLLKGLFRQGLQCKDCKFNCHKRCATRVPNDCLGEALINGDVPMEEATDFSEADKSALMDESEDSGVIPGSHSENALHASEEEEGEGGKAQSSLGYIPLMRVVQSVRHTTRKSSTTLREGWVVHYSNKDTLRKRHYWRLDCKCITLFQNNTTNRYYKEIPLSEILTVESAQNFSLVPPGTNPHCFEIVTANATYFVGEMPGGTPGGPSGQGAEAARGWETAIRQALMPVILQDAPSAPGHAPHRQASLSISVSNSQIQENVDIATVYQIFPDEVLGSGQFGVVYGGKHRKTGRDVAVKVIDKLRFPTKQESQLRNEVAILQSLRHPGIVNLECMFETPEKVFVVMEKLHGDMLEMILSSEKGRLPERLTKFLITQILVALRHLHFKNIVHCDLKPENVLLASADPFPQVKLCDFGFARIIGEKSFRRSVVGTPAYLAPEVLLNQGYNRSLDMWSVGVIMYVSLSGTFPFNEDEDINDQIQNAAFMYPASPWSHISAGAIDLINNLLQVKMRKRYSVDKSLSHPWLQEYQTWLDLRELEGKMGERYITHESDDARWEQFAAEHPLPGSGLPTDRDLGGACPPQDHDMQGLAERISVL

[3] = target: Casein kinase I isoform delta (Homo sapiens) (UniProt P48730); assay: Inhibition of human CK1D catalytic domain expressed in Escherichia coli cell assessed as substrate phosphorylation using fluorescence-labelled peptides as substrate at 95 uM after 90 mins by microfluidic peptide phosphorylation assay
[4] = target: Vascular endothelial growth factor receptor 2 (Homo sapiens) (UniProt P35968); assay: Inhibition of human KDR cytoplasmic domain expressed in baculovirus assessed as substrate phosphorylation using fluorescence-labelled peptides as substrate at 95 uM after 90 mins by microfluidic peptide phosphorylation assay
[5] = target: Serine/threonine-protein kinase PAK 2 (Homo sapiens) (UniProt Q13177); assay: Inhibition of human truncated PAK2 expressed in Escherichia coli cell assessed as substrate phosphorylation using fluorescence-labelled peptides as substrate at 0.06 uM after 90 mins by microfluidic peptide phosphorylation assay
[6] = target: Tyrosine-protein kinase Lck (Homo sapiens) (UniProt P06239); settings: 0.1 uM
Description: Inhibition of human full length LCK expressed in baculovirus assessed as substrate phosphorylation using fluorescence-labelled peptides as substrate at 0.1 uM after 90 mins by microfluidic peptide phosphorylation assay

[7] = target: Ribosomal protein S6 kinase alpha-5 (Homo sapiens) (UniProt O75582); assay: Inhibition of human full length MSK1 expressed in baculovirus assessed as substrate phosphorylation using fluorescence-labelled peptides as substrate at 0.1 uM after 90 mins by microfluidic peptide phosphorylation assay
[8] = target: Casein kinase I isoform delta (Homo sapiens) (UniProt P48730); assay: Inhibition of human CK1D catalytic domain expressed in Escherichia coli cell assessed as substrate phosphorylation using fluorescence-labelled peptides as substrate at […] after 90 mins by microfluidic peptide phosphorylation assay
[9] = target: Hepatocyte growth factor receptor (Homo sapiens) (UniProt P08581); assay: Inhibition of human MET cytoplasmic domain expressed in baculovirus assessed as substrate phosphorylation using fluorescence-labelled peptides as substrate at […] after 90 mins by microfluidic peptide phosphorylation assay
[10] = target: T2, Serine/threonine-protein kinase Chk1 (Homo sapiens) (UniProt O14757); assay: Inhibition of human full length CHK1 expressed in baculovirus assessed as substrate phosphorylation using fluorescence-labelled peptides as substrate at 70 uM after 90 mins by microfluidic peptide phosphorylation assay
T2 sequence (whole entry): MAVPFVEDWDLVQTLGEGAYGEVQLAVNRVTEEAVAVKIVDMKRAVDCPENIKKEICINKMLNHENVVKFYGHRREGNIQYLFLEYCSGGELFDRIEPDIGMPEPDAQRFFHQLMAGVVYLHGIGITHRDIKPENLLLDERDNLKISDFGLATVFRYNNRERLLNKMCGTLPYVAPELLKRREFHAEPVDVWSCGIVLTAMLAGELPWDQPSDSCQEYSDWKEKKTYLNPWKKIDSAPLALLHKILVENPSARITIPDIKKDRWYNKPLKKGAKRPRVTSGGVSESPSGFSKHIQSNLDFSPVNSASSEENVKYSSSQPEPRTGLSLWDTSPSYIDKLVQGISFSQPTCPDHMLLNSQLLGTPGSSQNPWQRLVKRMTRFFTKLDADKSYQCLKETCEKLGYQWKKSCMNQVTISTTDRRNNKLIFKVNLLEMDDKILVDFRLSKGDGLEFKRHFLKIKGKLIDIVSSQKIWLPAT

[11] = target: Aurora kinase B (Homo sapiens) (UniProt Q96GD4); assay: Inhibition of human full length AurB expressed in baculovirus assessed as substrate phosphorylation using fluorescence-labelled peptides as substrate at 0.2 uM after 90 mins by microfluidic peptide phosphorylation assay
[12] = target: T3, Serine/threonine-protein kinase Sgk1 (Homo sapiens) (UniProt O00141); assay: Inhibition of human truncated SGK1 expressed in baculovirus assessed as substrate phosphorylation using fluorescence-labelled peptides as substrate at 2 uM after 90 mins by microfluidic peptide phosphorylation assay
T3 sequence (whole entry): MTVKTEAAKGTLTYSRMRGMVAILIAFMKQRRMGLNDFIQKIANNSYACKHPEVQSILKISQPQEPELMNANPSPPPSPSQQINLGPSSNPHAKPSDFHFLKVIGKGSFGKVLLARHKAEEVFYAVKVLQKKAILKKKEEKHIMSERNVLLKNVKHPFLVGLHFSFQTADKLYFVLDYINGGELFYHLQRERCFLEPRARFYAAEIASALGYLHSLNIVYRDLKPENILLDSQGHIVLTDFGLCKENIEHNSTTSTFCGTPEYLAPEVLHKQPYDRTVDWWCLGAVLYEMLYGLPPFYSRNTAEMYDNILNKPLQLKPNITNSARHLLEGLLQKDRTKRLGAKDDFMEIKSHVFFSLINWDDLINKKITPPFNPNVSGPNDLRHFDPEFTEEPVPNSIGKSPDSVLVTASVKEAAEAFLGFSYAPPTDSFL

[13] = target: Fibroblast growth factor receptor 2 (Homo sapiens) (UniProt P21802); assay: Inhibition of human FGFR2 catalytic domain expressed in baculovirus assessed as substrate phosphorylation using fluorescence-labelled peptides as substrate at 8 uM after 90 mins by microfluidic peptide phosphorylation assay
Sequence of Fibroblast growth factor receptor 2 (Homo sapiens) (P21802 22-821 limits assumed): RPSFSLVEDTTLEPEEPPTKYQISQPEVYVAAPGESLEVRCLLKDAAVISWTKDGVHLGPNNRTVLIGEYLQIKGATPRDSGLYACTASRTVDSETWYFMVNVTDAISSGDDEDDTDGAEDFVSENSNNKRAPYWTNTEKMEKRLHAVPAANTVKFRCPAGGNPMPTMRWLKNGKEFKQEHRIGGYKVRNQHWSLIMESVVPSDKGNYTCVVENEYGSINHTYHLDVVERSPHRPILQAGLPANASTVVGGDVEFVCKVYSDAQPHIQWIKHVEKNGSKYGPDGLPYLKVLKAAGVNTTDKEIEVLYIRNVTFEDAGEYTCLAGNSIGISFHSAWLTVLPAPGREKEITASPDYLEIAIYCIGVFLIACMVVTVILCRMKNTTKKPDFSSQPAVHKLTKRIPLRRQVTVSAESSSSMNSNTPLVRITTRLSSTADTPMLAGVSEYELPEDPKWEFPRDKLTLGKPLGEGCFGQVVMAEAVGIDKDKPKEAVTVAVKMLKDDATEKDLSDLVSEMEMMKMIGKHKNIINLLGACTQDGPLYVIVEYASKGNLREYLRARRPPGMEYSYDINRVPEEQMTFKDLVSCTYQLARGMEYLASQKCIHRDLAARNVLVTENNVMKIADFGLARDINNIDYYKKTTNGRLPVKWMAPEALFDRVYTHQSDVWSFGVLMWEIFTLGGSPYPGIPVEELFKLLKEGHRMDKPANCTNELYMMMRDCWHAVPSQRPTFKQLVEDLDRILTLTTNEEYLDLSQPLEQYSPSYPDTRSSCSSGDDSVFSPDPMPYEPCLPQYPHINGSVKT

Sequence of Casein kinase I isoform delta (Homo sapiens) (P48730 whole entry, looked up, the tested form may be a part, canonical isoform): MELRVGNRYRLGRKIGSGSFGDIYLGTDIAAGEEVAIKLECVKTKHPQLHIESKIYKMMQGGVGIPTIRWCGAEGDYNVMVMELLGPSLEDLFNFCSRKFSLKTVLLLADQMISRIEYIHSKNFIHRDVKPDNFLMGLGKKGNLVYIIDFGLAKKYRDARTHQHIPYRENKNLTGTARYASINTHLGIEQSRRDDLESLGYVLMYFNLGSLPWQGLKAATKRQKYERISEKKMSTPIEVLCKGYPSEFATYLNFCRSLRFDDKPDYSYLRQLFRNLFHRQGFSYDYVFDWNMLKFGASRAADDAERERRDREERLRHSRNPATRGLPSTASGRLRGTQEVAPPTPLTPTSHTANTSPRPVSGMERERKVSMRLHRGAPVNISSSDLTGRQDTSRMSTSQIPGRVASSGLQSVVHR
Sequence of Ribosomal protein S6 kinase alpha-5 (Homo sapiens) (O75582 whole entry, looked up, the tested form may be a part, canonical isoform): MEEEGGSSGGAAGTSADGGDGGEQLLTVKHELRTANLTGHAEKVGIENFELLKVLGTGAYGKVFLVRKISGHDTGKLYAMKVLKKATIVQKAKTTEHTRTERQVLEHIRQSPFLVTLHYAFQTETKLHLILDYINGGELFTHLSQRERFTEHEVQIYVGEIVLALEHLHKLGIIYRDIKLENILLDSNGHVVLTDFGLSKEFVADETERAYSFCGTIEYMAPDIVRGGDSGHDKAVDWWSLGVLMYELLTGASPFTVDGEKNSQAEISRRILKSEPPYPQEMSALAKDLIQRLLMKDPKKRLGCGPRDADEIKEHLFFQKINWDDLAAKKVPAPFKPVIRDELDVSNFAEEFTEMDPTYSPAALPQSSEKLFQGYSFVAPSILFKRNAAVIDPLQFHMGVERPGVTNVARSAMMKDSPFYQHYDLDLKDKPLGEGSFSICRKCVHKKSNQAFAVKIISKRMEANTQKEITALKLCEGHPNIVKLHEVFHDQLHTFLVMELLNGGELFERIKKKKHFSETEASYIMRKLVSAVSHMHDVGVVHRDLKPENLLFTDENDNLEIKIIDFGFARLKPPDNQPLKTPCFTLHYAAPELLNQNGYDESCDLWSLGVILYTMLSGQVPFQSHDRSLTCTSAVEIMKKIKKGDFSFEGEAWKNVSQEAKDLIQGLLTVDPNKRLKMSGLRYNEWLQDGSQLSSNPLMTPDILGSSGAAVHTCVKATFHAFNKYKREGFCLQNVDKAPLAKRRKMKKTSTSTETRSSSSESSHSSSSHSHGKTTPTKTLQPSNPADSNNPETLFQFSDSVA
Sequence of Tyrosine-protein kinase Lck (Homo sapiens) (P06239 2-509 limits assumed): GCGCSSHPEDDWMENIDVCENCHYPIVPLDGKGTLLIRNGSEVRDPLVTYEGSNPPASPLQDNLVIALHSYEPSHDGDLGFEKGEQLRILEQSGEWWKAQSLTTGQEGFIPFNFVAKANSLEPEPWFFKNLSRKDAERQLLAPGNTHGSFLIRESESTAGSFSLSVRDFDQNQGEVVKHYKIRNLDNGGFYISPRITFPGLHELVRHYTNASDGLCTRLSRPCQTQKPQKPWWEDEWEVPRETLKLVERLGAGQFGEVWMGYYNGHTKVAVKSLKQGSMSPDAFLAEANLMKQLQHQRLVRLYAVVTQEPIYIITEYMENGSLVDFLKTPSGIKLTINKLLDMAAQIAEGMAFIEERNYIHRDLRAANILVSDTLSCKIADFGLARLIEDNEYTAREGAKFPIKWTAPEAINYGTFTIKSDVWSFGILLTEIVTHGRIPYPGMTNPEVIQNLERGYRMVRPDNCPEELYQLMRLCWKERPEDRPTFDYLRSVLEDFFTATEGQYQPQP
Sequence of Tyrosine-protein kinase ABL2 (Homo sapiens) (P42684 whole entry, the tested form may be a part): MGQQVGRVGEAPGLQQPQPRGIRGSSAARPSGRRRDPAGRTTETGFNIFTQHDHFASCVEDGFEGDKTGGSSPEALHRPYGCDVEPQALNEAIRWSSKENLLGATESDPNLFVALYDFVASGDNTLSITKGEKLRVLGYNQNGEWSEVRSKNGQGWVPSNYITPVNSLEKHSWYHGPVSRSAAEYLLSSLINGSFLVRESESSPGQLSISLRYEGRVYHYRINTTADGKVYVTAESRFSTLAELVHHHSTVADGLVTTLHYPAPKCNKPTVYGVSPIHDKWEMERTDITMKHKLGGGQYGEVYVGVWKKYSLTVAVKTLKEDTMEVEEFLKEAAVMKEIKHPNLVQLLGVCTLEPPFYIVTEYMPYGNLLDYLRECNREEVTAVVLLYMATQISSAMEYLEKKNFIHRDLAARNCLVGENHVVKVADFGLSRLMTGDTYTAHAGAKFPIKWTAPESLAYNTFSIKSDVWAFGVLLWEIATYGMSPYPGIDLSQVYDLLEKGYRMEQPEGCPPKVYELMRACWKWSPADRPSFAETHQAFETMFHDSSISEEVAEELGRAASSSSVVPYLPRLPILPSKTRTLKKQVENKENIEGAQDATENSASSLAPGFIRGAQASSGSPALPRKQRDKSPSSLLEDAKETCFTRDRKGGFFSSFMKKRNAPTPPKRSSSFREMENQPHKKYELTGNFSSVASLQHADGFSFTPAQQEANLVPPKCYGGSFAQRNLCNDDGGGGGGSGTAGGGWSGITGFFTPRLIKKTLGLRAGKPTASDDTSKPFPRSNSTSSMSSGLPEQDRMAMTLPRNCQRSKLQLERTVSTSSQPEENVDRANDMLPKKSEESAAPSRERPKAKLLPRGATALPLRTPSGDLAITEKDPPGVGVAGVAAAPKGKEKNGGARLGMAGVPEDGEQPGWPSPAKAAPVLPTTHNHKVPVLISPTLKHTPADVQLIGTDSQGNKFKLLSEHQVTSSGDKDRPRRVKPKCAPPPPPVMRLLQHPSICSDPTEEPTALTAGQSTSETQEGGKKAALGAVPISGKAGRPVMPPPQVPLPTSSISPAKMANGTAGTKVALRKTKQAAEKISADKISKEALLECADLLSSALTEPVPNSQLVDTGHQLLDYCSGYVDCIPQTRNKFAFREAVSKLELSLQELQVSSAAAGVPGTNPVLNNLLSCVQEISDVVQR
Sequence of Hepatocyte growth factor receptor (Homo sapiens) (P08581 whole entry, the tested form may be a part): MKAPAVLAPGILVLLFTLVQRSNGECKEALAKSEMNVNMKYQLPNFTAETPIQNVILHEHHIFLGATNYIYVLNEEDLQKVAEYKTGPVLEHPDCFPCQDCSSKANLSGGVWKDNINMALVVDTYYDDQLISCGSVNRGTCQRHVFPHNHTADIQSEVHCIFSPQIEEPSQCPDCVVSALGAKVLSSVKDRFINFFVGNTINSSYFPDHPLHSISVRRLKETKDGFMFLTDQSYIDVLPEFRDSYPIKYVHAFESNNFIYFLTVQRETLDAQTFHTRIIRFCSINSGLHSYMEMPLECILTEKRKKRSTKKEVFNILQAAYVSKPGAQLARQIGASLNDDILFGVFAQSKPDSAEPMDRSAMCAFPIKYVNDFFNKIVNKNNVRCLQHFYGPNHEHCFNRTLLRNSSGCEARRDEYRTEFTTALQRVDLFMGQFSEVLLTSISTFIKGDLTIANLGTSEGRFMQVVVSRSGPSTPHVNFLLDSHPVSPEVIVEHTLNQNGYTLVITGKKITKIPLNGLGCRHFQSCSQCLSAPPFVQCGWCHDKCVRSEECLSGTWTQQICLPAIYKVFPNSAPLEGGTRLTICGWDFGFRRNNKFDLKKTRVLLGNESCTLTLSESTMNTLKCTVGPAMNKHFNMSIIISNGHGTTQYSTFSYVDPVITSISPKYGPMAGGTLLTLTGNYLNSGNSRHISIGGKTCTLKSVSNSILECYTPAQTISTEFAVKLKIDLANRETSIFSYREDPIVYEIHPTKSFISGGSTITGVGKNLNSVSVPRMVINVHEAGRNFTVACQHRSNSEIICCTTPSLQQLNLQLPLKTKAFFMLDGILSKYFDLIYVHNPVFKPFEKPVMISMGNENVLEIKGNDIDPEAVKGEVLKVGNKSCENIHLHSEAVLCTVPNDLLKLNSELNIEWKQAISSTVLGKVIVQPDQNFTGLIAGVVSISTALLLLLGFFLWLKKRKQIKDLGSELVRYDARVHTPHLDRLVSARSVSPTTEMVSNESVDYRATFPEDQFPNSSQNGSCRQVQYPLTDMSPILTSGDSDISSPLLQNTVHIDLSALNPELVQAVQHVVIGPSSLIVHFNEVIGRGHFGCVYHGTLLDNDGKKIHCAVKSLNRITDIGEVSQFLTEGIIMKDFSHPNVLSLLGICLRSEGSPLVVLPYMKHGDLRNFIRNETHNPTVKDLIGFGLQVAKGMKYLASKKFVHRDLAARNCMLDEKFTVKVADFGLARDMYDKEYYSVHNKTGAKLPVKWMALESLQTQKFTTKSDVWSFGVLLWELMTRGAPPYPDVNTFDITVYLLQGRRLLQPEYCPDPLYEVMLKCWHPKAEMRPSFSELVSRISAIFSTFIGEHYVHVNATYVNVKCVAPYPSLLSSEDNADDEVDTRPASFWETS

**Q.** For `NCC1CN(c2ncnc3[nH]c4cnccc4c23)CCO1` (stereo not drawn), which inhibition [1] is on record?
**A.** 6.5%

**Q.** How did the inhibition [2] turn out when `NCCc1ccc(-c2ncnc3[nH]cnc23)cc1` was run?
**A.** 77.5%

**Q.** And the inhibition [3]?
**A.** 77.5%

**Q.** And the inhibition [4]?
**A.** 72.5%

**Q.** Which inhibition [5] does the source give for `NC1(Cc2ccc(Cl)cc2)CCN(c2ncnc3[nH]ccc23)CC1` here?
**A.** 1.5%

**Q.** With `C[C@H](CN(C)C)Oc1nc(Nc2cc3cccc(Cl)c3cn2)cnc1C#N` as the compound, how does the inhibition [6] read?
**A.** 0%

**Q.** And the inhibition [7]?
**A.** 0.5%

**Q.** For `COC(=O)c1cnc(Nc2cnc(C#N)cn2)cc1NCC1CCNCC1`, which inhibition [8] is on record?
**A.** 10.5%

**Q.** And the inhibition [9]?
**A.** 2.5%

**Q.** With `CNCc1ccc(-c2ncnc3[nH]cnc23)cc1` as the compound, how does the inhibition [10] read?
**A.** 72%

**Q.** `Clc1ccc(C2(c3ccc(-c4ncnc5[nH]cnc45)cc3)CCNCC2)cc1` was tested. Which inhibition [11] did it give?
**A.** 87.5%

**Q.** How did the inhibition [12] turn out when `NC1CCN(c2ncnc3[nH]ccc23)CC1` was run?
**A.** 27%

**Q.** For `NCC1CCN(c2ncnc3[nH]ccc23)CC1`, which inhibition [13] is on record?
**A.** 29.5%
